Source: patent US9249129B2, “Morpholino substituted urea derivatives as mTOR inhibitors” (CELLZOME LIMITED, priority 2010, dated 2016)

Key:
Assay in all cases: kinobeads assay with mass spectrometry detection of kinases (kinase selectivity profile)
Format in all cases: binding
[1] = target: T1, kinases (kinome) (Homo sapiens, UniProt P17252); conditions: PKCa (AGC), IPI00385449
T1 construct: determined in kinobeads assays with mass spectrometry detection of kinases as described previously; endogenous in cells; host or cells: cell lysate
Excerpt: (§1) The protein kinase complement of the human genome (the kinome) was described previously (Manning et al., 2002. Science 298(5600):1912-1934). Sequence accession numbers are defined by the International Protein Index (IPI) (Kersey et al., 2004. Proteomics 4(7):1985-1988).

[2] = target: T2, kinases (kinome) (Homo sapiens, UniProt P27448); conditions: MARK3 (CAMK), IPI00183118
T2 construct: determined in kinobeads assays with mass spectrometry detection of kinases as described previously; endogenous in cells; host or cells: cell lysate
Excerpt: as §1

[3] = target: T3, kinases (kinome) (Homo sapiens, UniProt P28482); conditions: Erk2 (CMGC), IPI00003479
T3 construct: determined in kinobeads assays with mass spectrometry detection of kinases as described previously; endogenous in cells; host or cells: cell lysate
Excerpt: as §1

[4] = target: T4, kinases (kinome) (Homo sapiens, UniProt P48729); conditions: CK1a (CK1), IPI00448798
T4 construct: determined in kinobeads assays with mass spectrometry detection of kinases as described previously; endogenous in cells; host or cells: cell lysate
Excerpt: as §1

[5] = target: T5, kinases (kinome) (Homo sapiens, UniProt P49674); conditions: CK1e (CK1), IPI00027729
T5 construct: determined in kinobeads assays with mass spectrometry detection of kinases as described previously; endogenous in cells; host or cells: cell lysate
Excerpt: as §1

[6] = target: T6, kinases (kinome) (Homo sapiens, UniProt P51451); conditions: BLK (TK), IPI00554756
T6 construct: determined in kinobeads assays with mass spectrometry detection of kinases as described previously; endogenous in cells; host or cells: cell lysate
Excerpt: as §1

[7] = target: T7, kinases (kinome) (Homo sapiens, UniProt Q00535); conditions: CDK5 (CMGC), IPI00023530
T7 construct: determined in kinobeads assays with mass spectrometry detection of kinases as described previously; endogenous in cells; host or cells: cell lysate
Excerpt: as §1

[8] = target: T8, kinases (kinome) (Homo sapiens, UniProt Q05397); conditions: FAK (TK), IPI00413961
T8 construct: determined in kinobeads assays with mass spectrometry detection of kinases as described previously; endogenous in cells; host or cells: cell lysate
Excerpt: as §1

[9] = target: T9, kinases (kinome) (Homo sapiens, UniProt Q13233); conditions: MAP3K1 (STE), IPI00855985
T9 construct: determined in kinobeads assays with mass spectrometry detection of kinases as described previously; endogenous in cells; host or cells: cell lysate
Excerpt: as §1

[10] = target: T10, kinases (kinome) (Homo sapiens, UniProt Q16539); conditions: p38a (CMGC), IPI00221141
T10 construct: determined in kinobeads assays with mass spectrometry detection of kinases as described previously; endogenous in cells; host or cells: cell lysate
Excerpt: as §1

[11] = target: T11, kinases (kinome) (Homo sapiens, UniProt Q9UHD2); conditions: TBK1 (Other), IPI00293613
T11 construct: determined in kinobeads assays with mass spectrometry detection of kinases as described previously; endogenous in cells; host or cells: cell lysate
T11 sequence (Q9UHD2 1-729): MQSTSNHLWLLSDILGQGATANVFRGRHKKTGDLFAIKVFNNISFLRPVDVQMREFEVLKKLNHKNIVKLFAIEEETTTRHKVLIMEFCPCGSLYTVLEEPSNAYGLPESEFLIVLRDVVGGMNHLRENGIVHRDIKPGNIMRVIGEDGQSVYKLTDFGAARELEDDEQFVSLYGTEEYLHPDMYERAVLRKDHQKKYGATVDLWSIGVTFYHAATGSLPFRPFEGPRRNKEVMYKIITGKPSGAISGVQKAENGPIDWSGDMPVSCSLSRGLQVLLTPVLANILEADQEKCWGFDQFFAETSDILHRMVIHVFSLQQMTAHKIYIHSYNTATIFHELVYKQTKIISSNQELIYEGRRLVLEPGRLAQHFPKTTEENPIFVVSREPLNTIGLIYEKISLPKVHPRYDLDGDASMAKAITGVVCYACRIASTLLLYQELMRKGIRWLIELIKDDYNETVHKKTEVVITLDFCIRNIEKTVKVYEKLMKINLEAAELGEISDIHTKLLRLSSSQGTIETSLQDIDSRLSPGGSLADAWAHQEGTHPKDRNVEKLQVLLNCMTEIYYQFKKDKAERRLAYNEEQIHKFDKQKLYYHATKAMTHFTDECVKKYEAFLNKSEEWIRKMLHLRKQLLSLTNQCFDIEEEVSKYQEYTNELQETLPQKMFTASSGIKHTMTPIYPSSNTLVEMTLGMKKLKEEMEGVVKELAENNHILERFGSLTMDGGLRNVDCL
Excerpt: as §1

[12] = target: T12, kinases (kinome) (Homo sapiens, UniProt Q9UL54); conditions: TAO2 (STE), IPI00006283
T12 construct: determined in kinobeads assays with mass spectrometry detection of kinases as described previously; endogenous in cells; host or cells: cell lysate
T12 sequence (Q9UL54 1-1235): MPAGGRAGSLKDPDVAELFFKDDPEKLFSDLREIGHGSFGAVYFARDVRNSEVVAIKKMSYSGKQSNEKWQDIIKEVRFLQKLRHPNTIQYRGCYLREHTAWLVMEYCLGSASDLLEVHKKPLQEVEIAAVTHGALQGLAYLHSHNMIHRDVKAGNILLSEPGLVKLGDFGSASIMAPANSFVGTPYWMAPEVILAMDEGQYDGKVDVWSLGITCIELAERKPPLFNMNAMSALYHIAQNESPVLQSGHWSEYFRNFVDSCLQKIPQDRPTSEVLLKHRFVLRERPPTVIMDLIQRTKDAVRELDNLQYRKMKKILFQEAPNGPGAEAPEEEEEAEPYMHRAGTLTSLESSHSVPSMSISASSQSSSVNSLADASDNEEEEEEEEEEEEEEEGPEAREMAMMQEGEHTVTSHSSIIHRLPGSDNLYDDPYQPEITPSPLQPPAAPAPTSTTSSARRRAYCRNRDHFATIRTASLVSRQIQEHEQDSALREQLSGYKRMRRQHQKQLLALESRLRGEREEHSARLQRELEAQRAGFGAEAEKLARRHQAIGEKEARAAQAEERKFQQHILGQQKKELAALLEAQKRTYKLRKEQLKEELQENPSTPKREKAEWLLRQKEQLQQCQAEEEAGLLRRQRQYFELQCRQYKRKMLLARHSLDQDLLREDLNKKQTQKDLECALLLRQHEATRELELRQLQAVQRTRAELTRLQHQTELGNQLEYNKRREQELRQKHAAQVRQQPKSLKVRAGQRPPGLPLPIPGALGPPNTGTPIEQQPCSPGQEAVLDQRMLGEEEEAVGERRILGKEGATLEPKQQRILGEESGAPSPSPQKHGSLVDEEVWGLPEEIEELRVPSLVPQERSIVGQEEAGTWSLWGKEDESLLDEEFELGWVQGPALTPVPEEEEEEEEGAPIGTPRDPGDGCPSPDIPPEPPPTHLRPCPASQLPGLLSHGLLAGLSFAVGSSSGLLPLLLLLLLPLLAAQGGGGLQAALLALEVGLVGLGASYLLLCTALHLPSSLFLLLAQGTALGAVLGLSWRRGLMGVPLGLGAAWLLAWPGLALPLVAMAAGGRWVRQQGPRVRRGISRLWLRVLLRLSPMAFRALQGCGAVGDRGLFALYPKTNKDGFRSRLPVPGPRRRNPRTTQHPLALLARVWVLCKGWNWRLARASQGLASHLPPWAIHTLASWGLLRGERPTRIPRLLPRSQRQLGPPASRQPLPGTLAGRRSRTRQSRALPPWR
Excerpt: as §1

Measured: IC50

T4 sequence (P48729 whole entry): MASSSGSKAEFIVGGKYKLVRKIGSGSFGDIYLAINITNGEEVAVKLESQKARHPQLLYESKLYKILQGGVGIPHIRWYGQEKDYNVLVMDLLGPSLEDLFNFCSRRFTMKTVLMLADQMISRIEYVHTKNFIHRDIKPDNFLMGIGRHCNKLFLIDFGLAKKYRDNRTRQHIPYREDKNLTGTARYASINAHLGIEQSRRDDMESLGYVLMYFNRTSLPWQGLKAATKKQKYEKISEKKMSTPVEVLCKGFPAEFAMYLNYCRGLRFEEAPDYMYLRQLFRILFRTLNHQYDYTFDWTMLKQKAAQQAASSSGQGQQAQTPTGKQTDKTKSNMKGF
T7 sequence (Q00535 whole entry): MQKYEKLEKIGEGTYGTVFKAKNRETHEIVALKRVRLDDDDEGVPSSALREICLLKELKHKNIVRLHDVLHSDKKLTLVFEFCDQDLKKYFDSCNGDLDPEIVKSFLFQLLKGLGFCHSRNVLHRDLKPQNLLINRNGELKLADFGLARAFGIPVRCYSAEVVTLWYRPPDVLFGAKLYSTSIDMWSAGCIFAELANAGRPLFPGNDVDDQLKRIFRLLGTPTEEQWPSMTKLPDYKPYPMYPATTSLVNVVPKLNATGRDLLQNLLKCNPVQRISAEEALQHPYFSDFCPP
T8 sequence (Q05397 whole entry): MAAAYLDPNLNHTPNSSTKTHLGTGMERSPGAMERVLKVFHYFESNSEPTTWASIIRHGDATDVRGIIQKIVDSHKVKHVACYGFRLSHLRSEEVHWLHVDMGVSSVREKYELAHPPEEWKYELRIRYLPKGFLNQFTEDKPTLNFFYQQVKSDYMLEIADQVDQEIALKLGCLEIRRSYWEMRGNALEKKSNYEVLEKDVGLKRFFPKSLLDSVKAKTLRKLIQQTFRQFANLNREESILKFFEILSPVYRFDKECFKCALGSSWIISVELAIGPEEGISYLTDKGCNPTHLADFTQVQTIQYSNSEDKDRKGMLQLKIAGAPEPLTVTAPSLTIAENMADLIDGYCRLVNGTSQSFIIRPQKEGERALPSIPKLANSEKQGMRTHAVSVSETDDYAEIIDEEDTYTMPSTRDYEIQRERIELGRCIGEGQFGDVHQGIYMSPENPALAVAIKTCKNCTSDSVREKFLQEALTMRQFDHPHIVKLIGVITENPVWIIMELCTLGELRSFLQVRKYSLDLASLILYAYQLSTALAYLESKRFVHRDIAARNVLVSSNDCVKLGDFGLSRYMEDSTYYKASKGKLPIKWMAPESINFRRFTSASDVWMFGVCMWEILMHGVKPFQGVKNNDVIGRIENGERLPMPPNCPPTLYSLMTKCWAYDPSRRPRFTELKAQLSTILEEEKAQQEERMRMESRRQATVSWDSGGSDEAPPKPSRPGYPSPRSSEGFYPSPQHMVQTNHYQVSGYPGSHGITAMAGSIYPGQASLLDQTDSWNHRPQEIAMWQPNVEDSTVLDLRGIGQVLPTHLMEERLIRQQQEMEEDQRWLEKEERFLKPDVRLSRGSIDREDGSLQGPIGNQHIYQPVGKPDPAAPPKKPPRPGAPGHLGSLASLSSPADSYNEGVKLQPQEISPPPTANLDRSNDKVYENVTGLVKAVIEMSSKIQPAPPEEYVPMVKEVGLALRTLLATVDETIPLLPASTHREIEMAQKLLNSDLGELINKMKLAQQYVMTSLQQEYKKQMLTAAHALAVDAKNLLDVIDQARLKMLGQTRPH
T6 sequence (P51451 whole entry): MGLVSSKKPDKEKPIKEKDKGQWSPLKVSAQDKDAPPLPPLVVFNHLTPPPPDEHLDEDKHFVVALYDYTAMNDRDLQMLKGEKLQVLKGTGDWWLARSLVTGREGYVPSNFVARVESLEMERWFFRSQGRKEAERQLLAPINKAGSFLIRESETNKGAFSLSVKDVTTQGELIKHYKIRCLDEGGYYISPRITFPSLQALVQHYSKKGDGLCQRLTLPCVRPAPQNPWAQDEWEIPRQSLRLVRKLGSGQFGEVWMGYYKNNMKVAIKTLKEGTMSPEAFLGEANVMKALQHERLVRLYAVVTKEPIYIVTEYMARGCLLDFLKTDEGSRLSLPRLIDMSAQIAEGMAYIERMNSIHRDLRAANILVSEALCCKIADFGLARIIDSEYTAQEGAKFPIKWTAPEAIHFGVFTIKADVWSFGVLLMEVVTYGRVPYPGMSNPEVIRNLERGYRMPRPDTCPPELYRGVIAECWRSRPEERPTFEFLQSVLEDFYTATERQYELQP
T3 sequence (P28482 whole entry): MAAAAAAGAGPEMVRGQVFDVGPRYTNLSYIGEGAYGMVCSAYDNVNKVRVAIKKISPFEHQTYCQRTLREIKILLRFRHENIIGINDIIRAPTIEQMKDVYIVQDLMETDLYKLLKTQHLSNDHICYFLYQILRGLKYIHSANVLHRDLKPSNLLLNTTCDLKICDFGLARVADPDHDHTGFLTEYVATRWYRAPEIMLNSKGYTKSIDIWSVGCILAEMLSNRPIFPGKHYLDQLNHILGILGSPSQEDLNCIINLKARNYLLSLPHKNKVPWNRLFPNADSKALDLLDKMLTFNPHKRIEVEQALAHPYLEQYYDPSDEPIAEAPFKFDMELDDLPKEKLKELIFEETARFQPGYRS
T9 sequence (Q13233 whole entry): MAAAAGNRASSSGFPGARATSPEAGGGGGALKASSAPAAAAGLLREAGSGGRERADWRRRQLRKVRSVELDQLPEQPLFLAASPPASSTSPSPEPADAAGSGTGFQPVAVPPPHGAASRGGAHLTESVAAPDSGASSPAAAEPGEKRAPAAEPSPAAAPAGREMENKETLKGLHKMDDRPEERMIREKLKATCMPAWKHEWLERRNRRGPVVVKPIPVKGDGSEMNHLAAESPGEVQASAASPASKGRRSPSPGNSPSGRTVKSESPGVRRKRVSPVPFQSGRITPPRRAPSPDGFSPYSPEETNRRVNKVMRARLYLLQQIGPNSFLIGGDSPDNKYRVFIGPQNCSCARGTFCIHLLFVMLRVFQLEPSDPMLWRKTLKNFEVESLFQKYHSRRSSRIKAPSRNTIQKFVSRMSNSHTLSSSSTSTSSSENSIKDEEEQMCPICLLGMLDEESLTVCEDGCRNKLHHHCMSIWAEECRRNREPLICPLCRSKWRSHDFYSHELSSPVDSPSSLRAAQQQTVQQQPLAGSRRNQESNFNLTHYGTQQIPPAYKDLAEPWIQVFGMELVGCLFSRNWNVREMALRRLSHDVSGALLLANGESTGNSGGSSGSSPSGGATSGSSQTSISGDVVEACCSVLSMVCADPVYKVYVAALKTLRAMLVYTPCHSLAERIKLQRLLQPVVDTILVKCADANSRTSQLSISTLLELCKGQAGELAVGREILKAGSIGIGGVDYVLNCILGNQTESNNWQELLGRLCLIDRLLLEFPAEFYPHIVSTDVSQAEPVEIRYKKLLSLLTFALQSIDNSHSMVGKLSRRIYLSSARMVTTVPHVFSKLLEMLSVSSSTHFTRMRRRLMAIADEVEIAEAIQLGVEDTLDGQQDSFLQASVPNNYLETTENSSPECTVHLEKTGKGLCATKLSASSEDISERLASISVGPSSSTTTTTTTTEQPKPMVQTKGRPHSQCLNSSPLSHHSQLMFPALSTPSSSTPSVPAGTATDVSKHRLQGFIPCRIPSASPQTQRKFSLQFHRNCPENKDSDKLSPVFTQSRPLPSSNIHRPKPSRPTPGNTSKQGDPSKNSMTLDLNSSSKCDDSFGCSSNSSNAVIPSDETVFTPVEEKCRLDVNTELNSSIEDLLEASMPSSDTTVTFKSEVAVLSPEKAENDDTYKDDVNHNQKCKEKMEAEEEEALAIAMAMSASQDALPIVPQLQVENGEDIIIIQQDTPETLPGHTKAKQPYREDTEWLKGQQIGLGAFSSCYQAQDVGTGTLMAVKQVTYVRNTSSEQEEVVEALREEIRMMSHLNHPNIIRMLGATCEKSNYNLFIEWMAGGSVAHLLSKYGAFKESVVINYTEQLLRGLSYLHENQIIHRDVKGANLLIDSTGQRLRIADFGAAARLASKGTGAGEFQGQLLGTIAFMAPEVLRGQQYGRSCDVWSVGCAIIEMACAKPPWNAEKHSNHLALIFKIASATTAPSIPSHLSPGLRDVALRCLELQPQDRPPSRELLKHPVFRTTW

C[C@H]1COCCN1c1nc(-c2ccc(NC(=O)NC3CC3)cc2)cc(-c2ccccc2S(C)(=O)=O)n1 [Example 4, (S)-1-cyclopropyl-3-(4-(2-(3-methylmorpholino)-6-(2-(methylsulfonyl)phenyl)pyrimidin-4-yl)phenyl)urea]
> 10 µM: all assays above

C[C@H]1COCCN1c1cc(-c2ccccc2S(C)(=O)=O)nc(-c2ccc(NC(=O)NC3CC3)cc2)n1 [Example 6, (S)-1-cyclopropyl-3-(4-(4-(3-methylmorpholino)-6-(2-(methylsulfonyl)phenyl)pyrimidin-2-yl)phenyl)urea]
> 10 µM: all assays above

CCNC(=O)Nc1ccc(-c2cc(-c3ccccc3C#N)nc(N3CCOC[C@@H]3C)n2)cc1 [Example 8, (S)-1-(4-(6-(2-cyanophenyl)-2-(3-methylmorpholino)pyrimidin-4-yl)phenyl)-3-ethylurea]
> 10 µM: all assays above

C[C@H]1COCCN1c1nc(-c2ccc(NC(=O)NC3CC3)cc2)cc(-c2cc(F)ccc2S(C)(=O)=O)n1 [Example 40, (S)-1-cyclopropyl-3-(4-(6-(5-fluoro-2-(methylsulfonyl)phenyl)-2-(3-methylmorpholino)pyrimidin-4-yl)phenyl)urea]
> 10 µM: all assays above

C[C@H]1COCCN1c1cc(-c2ccccn2)nc(-c2ccc(NC(=O)NCCO)cc2)n1 [Example 43, (S)-1-(2-hydroxyethyl)-3-(4-(4-(3-methylmorpholino)-6-(pyridin-2-yl)pyrimidin-2-yl)phenyl)urea]
> 10 µM: all assays above

C[C@H]1COCCN1c1nc(-c2ccc(NC(=O)NC3CC3)cc2)cc(-c2cccnc2S(C)(=O)=O)n1 [Example 46, (S)-1-cyclopropyl-3-(4-(2-(3-methylmorpholino)-6-(2-(methylsulfonyl)pyridin-3-yl)pyrimidin-4-yl)phenyl)urea]
> 10 µM: all assays above

C[C@H]1COCCN1c1nc(-c2ccc(NC(=O)N[C@H]3CCC[C@@H]3O)cc2)cc(-c2cc(F)ccc2S(C)(=O)=O)n1 [Example 76, 1-(4-(6-(5-fluoro-2-(methylsulfonyl)phenyl)-2-((S)-3-methylmorpholino)pyrimidin-4-yl)phenyl)-3-((1S,2S)-2-hydroxycyclopentyl)urea]
> 10 µM: all assays above
